Measured values taken from PubChem BioAssay AID743308 (Sanford-Burnham Center for Chemical Genomics, 2014).

Molecular target: Low molecular weight phosphotyrosine protein phosphatase (Homo sapiens) (UniProt P24666)
Experiment: LMPTP phosphatase inhibitors, colorimetric pNPP readout, dose response, orthogonal assay, biochemical, absorbance, pNPP substrate, LMPTP-A isoform, set 2 (AID 743308)
Conditions: recombinant LMPTP-A

Chain of Low molecular weight phosphotyrosine protein phosphatase (Homo sapiens) (P24666 whole entry, looked up, canonical isoform): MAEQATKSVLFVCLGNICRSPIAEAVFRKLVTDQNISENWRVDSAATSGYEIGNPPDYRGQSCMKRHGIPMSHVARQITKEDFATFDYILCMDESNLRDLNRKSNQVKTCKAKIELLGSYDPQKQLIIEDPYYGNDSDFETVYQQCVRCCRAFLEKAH

IC50: 3.52 µM
Compound: COc1ccc(-c2cc(NCCCN3CCCCC3)c3ccccc3n2)cc1
